Measurements as given in patent US20150148256A1, “BIOLUMINESCENCE IMAGING-BASED SCREENING ASSAY AND INHIBITORS OF ABCG2” (THE JOHNS HOPKINS UNIVERSITY, priority 2008, published 2015).
Counter-ions that a name gives are not always drawn.

The molecules below were run against T1, ABCG2 (Homo sapiens, UniProt Q9UNQ0) (assay: Bioluminescence imaging (BLI) assay in HEK293/ABCG2/fLuc cells). Conditions: not given.
T1 sequence (Q9UNQ0 1-655): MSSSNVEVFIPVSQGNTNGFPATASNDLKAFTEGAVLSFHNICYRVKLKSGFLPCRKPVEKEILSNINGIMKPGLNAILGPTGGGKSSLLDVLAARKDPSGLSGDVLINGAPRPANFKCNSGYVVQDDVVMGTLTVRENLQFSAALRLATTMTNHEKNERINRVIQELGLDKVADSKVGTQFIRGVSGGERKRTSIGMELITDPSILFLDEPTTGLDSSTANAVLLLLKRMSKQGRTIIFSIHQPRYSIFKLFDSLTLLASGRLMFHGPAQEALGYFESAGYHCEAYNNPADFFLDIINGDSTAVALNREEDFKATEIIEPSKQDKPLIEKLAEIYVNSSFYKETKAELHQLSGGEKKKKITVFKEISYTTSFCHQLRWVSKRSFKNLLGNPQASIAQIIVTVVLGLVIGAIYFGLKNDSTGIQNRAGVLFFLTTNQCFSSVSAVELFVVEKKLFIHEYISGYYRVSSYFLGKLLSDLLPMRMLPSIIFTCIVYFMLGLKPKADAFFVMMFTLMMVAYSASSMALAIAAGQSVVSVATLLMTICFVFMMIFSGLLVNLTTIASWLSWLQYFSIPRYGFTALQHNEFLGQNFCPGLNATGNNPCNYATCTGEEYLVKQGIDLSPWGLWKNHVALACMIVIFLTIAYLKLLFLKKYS
Procedure: HEK293/ABCG2/fLuc cells were plated into 96-well plates at a density of 4×10^4 cells/100 μL per well and were allowed to attach overnight. The following day, 10 μL of each compound or the control solvent was transferred from a compound library in a 96-well, high-throughput format into the wells using a multichannel pipette. […] Images were taken every 5 minutes for ˜1 h. Light output from each well was quantified at the 40 min time point after initiation of imaging, and the signal-to-background (S/B) ratio of the light output from each compound divided by that from the control well was calculated. This S/B ratio serves as an indicator of the potency of ABCG2 inhibition, the mechanism by which BLI signal is enhanced.
Images were taken every 5 min for ˜1 h, and light output from each well at the 40 min time point was chosen for quantification. The SB ratio of the light output from each compound divided by that from the control well was calculated. This ratio was used as an indicator of the potency of ABCG2 inhibition, the mechanism by which BLI signal is enhanced.
The BLI signal-enhancing effect of selected ABCG2 inhibitors was evaluated within the range of 0.001 μM-100 μM, with HEK293/ABCG2/fLuc cells and 50 μg/mL D-luciferin. The data obtained at 40 min after imaging commencement were chosen arbitrarily to be plotted (FIG. 3).

SMILES | Fold (BLI enhancement, S/B ratio over control) [fold]
Cc1cc(C(C)(C)CC(C)(C)C)ccc1OCCOCC[N+](C)(C)Cc1ccccc1.[Cl-] [methylbenzethonium chloride] | 2.1

Same assay, conditions: Table 2; HEK293/ABCG2/fLuc cells, compound approximately 17 μM, ~50 μg/mL D-luciferin, 40 min time point

SMILES | Fold (BLI enhancement, S/B ratio over control) [fold]
COc1ccc2c3c([nH]c2c1)C(C)=NCC3 [harmaline] | 8.8
COc1cc(-c2oc3cc(O)cc(O)c3c(=O)c2O)ccc1O [isorhamnetin] | 7.0
CC[C@H]1/C=C/C=C/C[C@@H](C)[C@H](O)[C@@](C)(O)C(=O)[C@@H](C)[C@H](O)[C@@H](C)C(=O)[C@@H](C)[C@H](O)[C@@H](C)/C=C/C(=O)O[C@@H]2[C@H](C)[C@H](CC1)O[C@]1(CC[C@H](C)[C@H](C[C@@H](C)O)O1)[C@H]2C [oligomycin] | 5.0
COS(=O)(=O)[O-].C[n+]1c2ccccc2nc2ccccc21 [phenazine methosulfate] | 2.8
O=C(O)CCCc1ccccc1 [phenylbutyric acid] | 2.1
COc1ccc(C(=O)c2c(C)n(CCN3CCOCC3)c3ccccc23)cc1 [pravadoline] | 2.7

Same assay, conditions: Table 4; approximately 17 μM, 40 min time point

SMILES | Fold (BLI enhancement), previously unknown compounds [fold]
COc1ccc2c3c([nH]c2c1)C(C)=NCC3 [harmaline] | 8.8
COc1cc(-c2oc3cc(O)cc(O)c3c(=O)c2O)ccc1O [isorhamnetin] | 7.0
CC[C@H]1/C=C/C=C/C[C@@H](C)[C@H](O)[C@@](C)(O)C(=O)[C@@H](C)[C@H](O)[C@@H](C)C(=O)[C@@H](C)[C@H](O)[C@@H](C)/C=C/C(=O)O[C@@H]2[C@H](C)[C@H](CC1)O[C@]1(CC[C@H](C)[C@H](C[C@@H](C)O)O1)[C@H]2C [oligomycin] | 5.0

Same assay, conditions: human

SMILES | Fold (BLI enhancement, S/B ratio over control) [fold] | Fold (BLI enhancement), known compounds [fold]
CC1=NCCc2c1[nH]c1cc(O)ccc21.Cl [harmalol hydrochloride] | 2.9 | 
COc1ccc2c(c1)[nH]c1c(C)nccc12 [harmine] | 8.9 | 8.9
Cc1cc(O)c2c(=O)c3c(O)cc(O)c4c5c(O)cc(O)c6c(=O)c7c(O)cc(C)c8c1c2c(c34)c(c78)c65 [hypericin] | 3.3 | 
CC[C@@H](C(=O)[C@@H](C)[C@@H](O)[C@H](C)CCc1ccc(C)c(O)c1C(=O)O)[C@H]1O[C@](CC)([C@H]2CC[C@](O)(CC)[C@H](C)O2)C[C@@H]1C [lasalocid sodium] | 2.7 | 
COC(=O)C1=C(C)NC(C)=C(C(=O)OCCCN2CCC(c3ccccc3)(c3ccccc3)CC2)[C@H]1c1cccc([N+](=O)[O-])c1 [niguldipine] | 5.9 | 5.9
COc1ccc(Cc2nccc3cc(OC)c(OC)cc23)cc1OC [papaverine hydrochloride] | 2.0 | 

Same assay, conditions: human, 40 min, 17 μM

SMILES | Fold (BLI enhancement), known compounds [fold] | Fold (BLI enhancement, S/B ratio over control) [fold] | BLI signal enhancement [fold] | fold (BLI enhancement), additional previously known ABCG2 inhibitors [fold] | Fold (BLI enhancement), previously unknown compounds [fold]
COc1cc2ncnc(Nc3ccc(F)c(Cl)c3)c2cc1OCCCN1CCOCC1 [gefitinib] | 19.0 | 19.0 |  |  | 
O=c1c(-c2ccc(O)cc2)coc2cc(O)cc(O)c12 [genistein] |  |  | 1.2 | 1.2 | 
CN1C2CCCC1CC(NC(=O)c1nn(C)c3ccccc13)C2 (stereo not drawn) [granisetron hydrochloride] |  | 2.2 |  |  | 
CC1(C)O[C@@H]2C[C@H]3[C@@H]4CCC5=CC(=O)CC[C@]5(C)[C@@]4(F)[C@@H](O)C[C@]3(C)[C@]2(C(=O)CCl)O1 [halcinonide] |  | 2.2 |  |  | 
COc1ccc([C@@H]2CC(=O)c3c(O)cc(O)cc3O2)cc1O [hesperetin] | 5.0 | 5.0 |  |  | 
CCN(CC)CCNc1ccc(CO)c2sc3ccccc3c(=O)c12 [hycanthone] |  | 2.5 |  |  | 
CCc1c2c(nc3ccc(OC(=O)N4CCC(N5CCCCC5)CC4)cc13)-c1cc3c(c(=O)n1C2)COC(=O)[C@]3(O)CC [irinotecan hydrochloride] |  | 4.0 |  |  | 
COC(=O)[C@H]1[C@H]2C[C@H]3c4[nH]c5cc(OC)ccc5c4CCN3C[C@H]2C[C@@H](OC(=O)c2cc(OC)c(OC)c(OC)c2)[C@@H]1OC [isoreserpine] |  | 6.2 |  |  | 6.2
COc1ccc(C(=O)NCc2ccc(OCCN(C)C)cc2)cc1OC [itopride hydrochloride] |  | 2.2 |  |  | 
O=c1c(O)c(-c2ccc(O)cc2)oc2cc(O)cc(O)c12 [kaempferol] |  | 4.3 |  |  | 
COc1c2occc2c(OC)c2c(=O)cc(C)oc12 [khellin] |  | 3.4 |  |  | 
COc1ccc(CN2CCN(C(c3ccc(F)cc3)c3ccc(F)cc3)CC2)c(OC)c1OC [lomerizine hydrochloride] |  | 4.0 |  |  | 
CCN(CCCCOC(=O)c1ccc(OC)c(OC)c1)C(C)Cc1ccc(OC)cc1 (stereo not drawn) [mebeverine hydrochloride] |  | 3.2 |  |  | 
CC(=O)[C@H]1CC[C@H]2[C@@H]3C[C@H](C)C4=CC(=O)CC[C@]4(C)[C@H]3[C@@H](O)C[C@]12C [medrysone] |  | 2.3 |  |  | 
CC(=O)O[C@]1(C(C)=O)CC[C@H]2[C@@H]3C=C(C)C4=CC(=O)CC[C@]4(C)[C@H]3CC[C@@]21C [megestrol acetate] |  | 2.1 |  |  | 
NCCS [mercaptamine hydrochloride] |  | 2.2 |  |  | 
COc1ccc(/C=C/C(=O)c2ccc(OC)cc2OC)cc1 [metochalcone] |  | 2.8 |  |  | 
CCOC(=O)Nc1ccc2c(c1)N(C(=O)CCN1CCOCC1)c1ccccc1S2 [moricizine hydrochloride] |  | 2.3 |  |  | 

SMILES | Fold (BLI enhancement), known compounds [fold] | Fold (BLI enhancement, S/B ratio over control) [fold] | BLI signal enhancement [fold] | fold (BLI enhancement), additional previously known ABCG2 inhibitors [fold] | Fold (BLI enhancement), previously unknown compounds [fold]
COc1ccccc1N1CCN(CC(O)COc2cccc3ccccc23)CC1 (stereo not drawn) [naftopidil] |  | 2.4 |  |  | 
O=C1C[C@@H](c2ccc(O)cc2)Oc2cc(O)cc(O)c21 [naringenin] |  |  | 1.9 | 1.9 | 
CCc1nn(CCCN2CCN(c3cccc(Cl)c3)CC2)c(=O)n1CCOc1ccccc1 [nefazodone hydrochloride] |  | 2.6 |  |  | 
Cc1c(O)cccc1C(=O)N[C@@H](CSc1ccccc1)[C@H](O)CN1C[C@H]2CCCC[C@H]2C[C@H]1C(=O)NC(C)(C)C [nelfinavir mesylate] | 6.1 | 6.1 |  |  | 
COC(=O)C1=C(C)NC(C)=C(C(=O)OCCN(C)Cc2ccccc2)C1c1cccc([N+](=O)[O-])c1 (stereo not drawn) [nicardipine] |  | 2.9 |  | 2.9 | 
CO[C@]12C[C@@H](COC(=O)c3cncc(Br)c3)CN(C)[C@@H]1Cc1cn(C)c3cccc2c13 [nicergoline] |  | 2.0 |  |  | 
COCCOC(=O)C1=C(C)NC(C)=C(C(=O)OC(C)C)C1c1cccc([N+](=O)[O-])c1 (stereo not drawn) [nimodipine] |  | 2.8 |  | 2.8 | 
COC(=O)C1=C(C)NC(C)=C(C(=O)OCC(C)C)C1c1ccccc1[N+](=O)[O-] (stereo not drawn) [nisoldipine] |  | 3.2 |  |  | 
COc1ccc2c(c1OC)C(=O)O[C@@H]2[C@H]1c2c(cc3c(c2OC)OCO3)CCN1C [noscapine hydrochloride] |  | 2.3 |  |  | 
Cc1c(-c2cnccn2)ssc1=S [oltipraz] |  | 3.2 |  |  | 
Cc1nccn1CC1CCc2c(c3ccccc3n2C)C1=O (stereo not drawn) [ondansetron hydrochloride] |  | 2.7 |  |  | 
COC(=O)Nc1nc2ccc([S+]([O-])c3ccccc3)cc2[nH]1 (stereo not drawn) [oxfendazole] |  | 2.1 |  |  | 
CCCCCCn1c(=O)c2c(ncn2C)n(C)c1=O [pentifylline] |  | 3.8 |  |  | 
N#Cc1ccc2c(c1)N(CCCN1CCC(O)CC1)c1ccccc1S2 [periciazine] |  |  |  |  | 6.3
OCCN1CCN(CCCN2c3ccccc3Sc3ccc(Cl)cc32)CC1 [perphenazine] |  | 4.2 |  |  | 
COc1cc(O)c2c(c1)C(=O)c1cc(C)cc(O)c1C2=O [physcion] |  | 2.1 |  |  | 
O=c1[nH]c2ccccc2n1C1CCN(CCCC(c2ccc(F)cc2)c2ccc(F)cc2)CC1 [pimozide] |  | 2.0 |  |  | 
CC(=O)c1ccc2c(c1)N(CCCN1CCC(CCO)CC1)c1ccccc1S2 [piperacetazine] |  | 5.8 |  |  | 5.8
